Experimental data taken from US7235649B2, “Isolated GRP94 ligand binding domain polypeptide and nucleic acid encoding same, and screening methods employing same” (Duke University, priority 2000, dated 2007).
Values belong to the compound of their own block, whether it stands above or below them.

Tests used:
Hsp90 = assay: [32P]ATP binding assay (nitrocellulose filtration); design: species or system rat; details: 50 μM [32P]ATP, 1 hour on ice
Protocol: Hsp90 was purified from rat liver cytosol as follows. Cytosol was adjusted to 30% ammonium sulfate and stirred for 60 min on ice. The solution was centrifuged at 20,000×g in a Sorvall SS34 rotor for 15 minutes and the supernatant collected and filtered through a 0.22 μm filter. The filtered supernatant was supplemented with protease inhibitors (1 μg/ml pepstatin, 1 μg/ml leupeptin, 20 μg/ml SBTI, and 0.5 mM PMSF) and loaded onto a phenyl-SUPEROSE™ HR10/10 column (Amersham Pharmacia Biotech of Piscataway, N.J.). After washing, the bound proteins were eluted with a gradient of 30–0% saturated ammonium sulfate in 10 mM Tris/HCl, pH 7.5, 1 mM EGTA, 0.5 mM DTT and the Hsp90 containing fractions were identified by SDS-PAGE. The Hsp90 containing fractions were then pooled and dialyzed 2×3 hr against 2 L of low salt buffer (10 mM NaCl, 25 mM Tris, pH 7.8). The dialyzed sample was then filtered through a 0.22 μm filter, and injected onto a MONO-Q™ HR 10/10 column (Amersham Pharmacia Biotech of Piscataway, N.J.) equilibrated in low salt buffer. The column was eluted with a gradient of 10 mM–750 mM NaCl in 25 mM Tris, pH 7.8. The Hsp90-containing fractions were identified by SDS-PAGE and pooled.
ATP Binding Assay. Six μg of GRP94, BiP, and Hsp90 was incubated with 50 μM yZ[^32P] […] Filters were washed with 3×2 mL of ice cold buffer B, placed in 5 mL of scintillation fluid, vortexed, and counted.

BiP [1] = assay: [32P]ATP binding assay (nitrocellulose filtration); design: species or system porcine; details: 50 μM [32P]ATP, 1 hour on ice
Protocol: (§1) BiP was purified by the following procedure. A lumenal protein fraction obtained from porcine pancreas rough microsomes was cycled overnight through a 1 ml ADP-agarose and a 1 ml ATP-agarose (Sigma Chemical Co. of St. Louis, Mo.) column coupled in series. […] The BiP containing fractions were identified by SDS-PAGE, and dialyzed against 2×4 L of buffer A (110 mM KOAc, 20 mM NaCl, 25 mM K-Hepes, pH 7.2, 2 mM Mg(OAc)2 0.1 mM CaCl2). The protein sample was then applied to a SUPERDEX® 26/60 column (Amersham Pharmacia Biotech of Piscataway, N.J.) equilibrated in buffer A, and the BiP containing fractions, again identified by SDS-PAGE, were pooled and concentrated by centrifugal ultrafiltration (CENTRICON-30®; Amicon of Beverly, Mass.).
(§2) ATP Binding Assay. Six μg of GRP94, BiP, and Hsp90 was incubated with 50 μM yZ[^32P] ATP (1000 μCi/μmol) (Amersham Pharmacia Biotech of Piscataway, N.J.) in buffer B on ice for 1 hour. Nitrocellulose filters (BA85) (Schleicher & Schuell of Keene, N.H.) were individually wet in buffer B before use, and bound versus free [^32P]-ATP was separated by vacuum filtration. Filters were washed with 3×2 mL of ice cold buffer B, placed in 5 mL of scintillation fluid, vortexed, and counted.

GRP94 [2] = biological target: T1, GRP94 (Sus scrofa, UniProt Q29092); assay: Tryptophan fluorescence (ligand-induced conformational change); details: 50 μM NECA, 50 μM geldanamycin, 2.5 mM ATP or 2.5 mM ADP, 1 hour at 37° C.
[3] = biological target: N-terminal nucleotide binding pocket of Hsp90 (Saccharomyces cerevisiae, UniProt P02829); details: Prodromou et al. (1997); read-out: Kd of ATP for Hsp90; cited from earlier work
GRP94 [4] = biological target: T1, GRP94; assay: [32P]ATP binding assay (nitrocellulose filtration); design: GRP94 was purified from porcine pancreas rough microsomes; from tissue; host or cells: porcine pancreas rough microsomes; species or system porcine; details: 50 μM [32P]ATP, 1 hour on ice
Protocol: as §2

GRP94 [5] = biological target: T1, GRP94; assay: [3H]-NECA competitive displacement assay; assay type: binding, porcine; design: GRP94 was purified from porcine pancreas rough microsomes; from tissue; host or cells: porcine pancreas rough microsomes; details: for effect of excess Mg2+ on binding to GRP94: 10 mM Mg(OAc)2 vs nominal endogenous magnesium
BiP [6] = assay: [3H]-NECA binding assay (vacuum filtration); design: species or system porcine; details: 20 nM [3H]-NECA, 60 min on ice
Protocol: as §1
[^3H]-NECA Binding Assay.
In similar experiments, [^3H]-NECA binding to Hsp90 was evaluated in the presence of molybdate and NP-40, which are known to stabilize the Hsp90 conformation associated with ATP binding, as described by Sullivan et al. (1997).

GRP94 [7] = biological target: T1, GRP94; assay: [3H]-NECA binding assay (vacuum filtration); design: GRP94 was purified from porcine pancreas rough microsomes; from tissue; host or cells: porcine pancreas rough microsomes; species or system porcine
GRP94 [8] = biological target: T1, GRP94; assay: GRP94 autophosphorylation assay; assay type: biochemical, porcine; design: GRP94 was purified from porcine pancreas rough microsomes; from tissue; host or cells: porcine pancreas rough microsomes; details: 180 μM NECA or 180 μM radicicol in 3.6% DMSO, 5 μg/ml heparin, 5 mM GTP; 1 hour 37° C.
Protocol: (§3) Phosphorylation Assays. […] For the casein kinase assay, 1 unit of casein kinase 11 was incubated as described above, with the addition of 4 μM casein. […] The 25 μl reaction mixtures were incubated at 37° C. for 1 hour and quenched by addition of 10% trichloroacetic acid. Samples were analyzed by 10% SDS-PAGE gels and the phosphorylated species were quantitated using a Fuji MACBAS1000™ phosphorimaging system (Fuji Medical Systems of Stamford, Conn.).

casein kinase II = casein kinase II (Homo sapiens, UniProt P68400); assay: Casein kinase II assay with casein; assay type: biochemical; details: 180 μM NECA or 180 μM radicicol in 3.6% DMSO, 5 μg/ml heparin, 5 mM GTP; 4 μM casein
Protocol: as §3

GRP94 [9] = biological target: T1, GRP94; assay: Isothermal titration calorimetry; assay type: binding, porcine; design: GRP94 was purified from porcine pancreas rough microsomes; from tissue; host or cells: porcine pancreas rough microsomes; details: 5 μM GRP94, 152 μM NECA stock, 25° C.

T1 sequence (Q29092 22-804): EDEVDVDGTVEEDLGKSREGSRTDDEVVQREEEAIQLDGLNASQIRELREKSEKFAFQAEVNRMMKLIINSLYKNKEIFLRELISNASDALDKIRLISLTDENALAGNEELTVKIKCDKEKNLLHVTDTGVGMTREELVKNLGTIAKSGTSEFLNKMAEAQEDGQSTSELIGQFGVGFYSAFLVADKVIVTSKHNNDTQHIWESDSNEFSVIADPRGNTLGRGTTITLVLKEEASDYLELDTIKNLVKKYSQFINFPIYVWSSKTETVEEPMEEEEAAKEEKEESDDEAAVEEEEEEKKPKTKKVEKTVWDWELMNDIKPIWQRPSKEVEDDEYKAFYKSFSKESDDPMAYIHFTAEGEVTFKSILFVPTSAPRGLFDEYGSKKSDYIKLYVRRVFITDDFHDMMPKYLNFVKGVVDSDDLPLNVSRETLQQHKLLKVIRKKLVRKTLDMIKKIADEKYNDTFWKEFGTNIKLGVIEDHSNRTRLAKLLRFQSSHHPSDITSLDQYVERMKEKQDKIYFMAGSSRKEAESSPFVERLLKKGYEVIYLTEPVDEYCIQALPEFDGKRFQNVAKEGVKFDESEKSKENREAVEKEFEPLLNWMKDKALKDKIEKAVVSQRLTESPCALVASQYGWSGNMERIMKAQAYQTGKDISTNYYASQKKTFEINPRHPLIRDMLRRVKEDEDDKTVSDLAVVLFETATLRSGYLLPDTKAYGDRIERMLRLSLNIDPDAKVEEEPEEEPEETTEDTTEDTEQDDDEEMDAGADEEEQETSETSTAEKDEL
N-terminal nucleotide binding pocket of Hsp90, sequence (P02829 whole entry): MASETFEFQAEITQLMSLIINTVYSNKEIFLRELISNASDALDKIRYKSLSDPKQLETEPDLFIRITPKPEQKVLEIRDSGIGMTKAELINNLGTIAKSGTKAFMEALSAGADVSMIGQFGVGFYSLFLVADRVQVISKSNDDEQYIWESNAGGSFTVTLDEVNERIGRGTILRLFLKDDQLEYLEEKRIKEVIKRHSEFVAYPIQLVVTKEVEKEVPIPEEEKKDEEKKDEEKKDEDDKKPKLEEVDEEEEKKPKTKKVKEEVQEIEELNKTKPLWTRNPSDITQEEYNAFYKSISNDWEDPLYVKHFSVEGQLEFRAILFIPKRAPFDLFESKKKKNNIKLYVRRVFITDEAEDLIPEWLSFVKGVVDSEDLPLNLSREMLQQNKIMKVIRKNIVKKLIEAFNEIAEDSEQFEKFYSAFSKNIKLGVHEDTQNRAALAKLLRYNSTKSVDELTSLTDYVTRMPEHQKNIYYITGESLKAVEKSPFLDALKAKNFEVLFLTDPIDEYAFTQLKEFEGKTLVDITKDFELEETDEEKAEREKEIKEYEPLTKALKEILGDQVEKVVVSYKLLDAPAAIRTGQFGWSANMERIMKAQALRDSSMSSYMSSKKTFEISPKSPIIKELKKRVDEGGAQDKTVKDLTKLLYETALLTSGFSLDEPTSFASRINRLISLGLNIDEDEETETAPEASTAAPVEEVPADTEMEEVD
casein kinase II, sequence (P68400 whole entry): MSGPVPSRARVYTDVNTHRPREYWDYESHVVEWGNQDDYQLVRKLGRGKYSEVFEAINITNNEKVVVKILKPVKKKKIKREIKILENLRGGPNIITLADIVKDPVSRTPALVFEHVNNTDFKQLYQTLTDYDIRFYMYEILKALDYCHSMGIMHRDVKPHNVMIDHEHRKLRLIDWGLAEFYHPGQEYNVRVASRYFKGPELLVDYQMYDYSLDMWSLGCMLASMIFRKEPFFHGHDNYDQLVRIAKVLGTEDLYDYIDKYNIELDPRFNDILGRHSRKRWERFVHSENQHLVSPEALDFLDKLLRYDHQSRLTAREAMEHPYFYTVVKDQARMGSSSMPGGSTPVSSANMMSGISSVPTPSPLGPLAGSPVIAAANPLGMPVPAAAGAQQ
casein kinase II, sequence (P67870 whole entry partner): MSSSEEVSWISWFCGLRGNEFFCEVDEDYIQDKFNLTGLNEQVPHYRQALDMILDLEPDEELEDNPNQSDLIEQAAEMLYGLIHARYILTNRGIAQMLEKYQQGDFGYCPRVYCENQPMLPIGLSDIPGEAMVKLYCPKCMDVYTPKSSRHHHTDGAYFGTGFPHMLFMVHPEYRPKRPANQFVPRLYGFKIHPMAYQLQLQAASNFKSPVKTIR

ATP binding to Hsp90 (Hsp90): no ATP binding was observed
ATP binding to GRP94 (GRP94 [4]): no ATP binding was observed
molar excess of competitor required for 50% inhibition of [3H]-NECA binding (GRP94 [5]; 20 nM [3H]-NECA): ~1000 -fold molar excess
competition with [3H]-NECA for binding to GRP94 (adenosine ligands) (GRP94 [5]; 20 nM [3H]-NECA, nominal (80 μM) Mg2+): effectively competed
effect of excess Mg2+ on binding to GRP94 (GRP94 [5]): markedly stimulated
extent of competition of NECA binding to GRP94 (GRP94 [5]; FIGS. 10A–10C): wholly competed
nucleoside base specificity: binding by [3H]-NECA competitive displacement (GRP94 [5]; competitors all at 50 μM, 20 nM [3H]-NECA): could bind
relative affinities for GRP94 in presence of Mg2+ (GRP94 [5]; excess Mg2+): nearly identical relative affinities
efficacy of competing NECA binding, ATP relative to ADP (GRP94 [5]; nominal Mg2+): eight-fold higher efficacy than ADP
Structure (SMILES): Nc1ncnc2c1ncn2[C@@H]1O[C@H](COP(=O)(O)OP(=O)(O)OP(=O)(O)O)[C@@H](O)[C@H]1O [ATP]
ATP binding to BiP (BiP [1]): displayed the expected ATP binding activity
change of GRP94 tryptophan fluorescence (GRP94 [2]): the tryptophan fluorescence was decreased
Kd [3]: 132 µM

Structure (SMILES): CCNC(=O)[C@H]1O[C@@H](n2cnc3c(N)ncnc32)[C@H](O)[C@@H]1O [NECA, N-ethylcarboxamidoadenosine]
[3H]-NECA binding to BiP (BiP [6]): not observed
change of GRP94 tryptophan fluorescence (GRP94 [2]): increased the tryptophan fluorescence
[3H]-NECA binding activity of GRP94 (GRP94 [7]; 20 nM [3H]-NECA, 60 min on ice): readily detectable
stoichiometry of NECA bound to GRP94 at saturation (summary) (GRP94 [7]; ligand binding studies and isothermal titration calorimetry): 1 mol NECA:mol GRP94 dimer
Hill plot slope of [3H]-NECA binding (GRP94 [7]; saturation binding): 1.2
binding stoichiometry of [3H]-NECA (GRP94 [7]; saturation binding): 0.5 mol [^3H]-NECA/mol GRP94 monomer
maximal binding stoichiometry of NECA (GRP94 [7]; saturation curve, FIG. 9B): 1 molecule of NECA per molecule of GRP94 dimer
effect on GRP94 autophosphorylation activity (GRP94 [8]): does not significantly inhibit GRP94 autophosphorylation activity
effect of excess Mg2+ on binding to GRP94 (GRP94 [5]): without effect
effect on casein kinase II activity (casein kinase II): neither NECA nor radicicol, both of which bind to the N-terminal nucleotide binding domain of GRP94, significantly inhibit GRP94 derived or casein kinase II activity
binding stoichiometry of NECA by isothermal titration calorimetry (GRP94 [9]): 1.1 mol NECA/mol GRP94 dimer
